In patent US20120255853A1, “Method for Producing Superoxide, Method for Evaluating Superoxide Scavenging Ability, Device for Producing Superoxide, and Device for Evaluating Superoxide Scavenging Ability” (Sapporo Medical University, priority 2009, published 2012):

Tests used:
[1] = Inhibition of radical generation by SOD, superoxide generated by xanthine oxidase (ESR); assay type: biochemical; conditions: SOD 0.5, 1, 1.5 U/mL; hypoxanthine 0.39 mmol/L, xanthine oxidase 0.2 U/mL; compared with riboflavin system
Method: Into a 50 mmol/L phosphate buffer with pH 7.4, hypoxanthine, CYPMPO (Radical Research Inc.), and diethylenetriaminopentaacetic acid (DETAPAC) were each added at 0.39 mmol/L, 10 mmol/L, and 0.1 mmol/L, respectively, to prepare an aqueous solution (SOD-free aqueous solution). Further, to this aqueous solution, SOD (Sigma) was added at a concentration of 0.5 U/mL, 1 U/mL, and 1.5 U/mL to separately prepare aqueous solutions with added SOD.
To each of the SOD-free aqueous solution and aqueous solutions with added SOD thus prepared, xanthine oxidase was added at 0.2 U/mL. Following a similar operation to Example 1 (2), each of the aqueous solutions was measured by ESR to obtain a spectrum. Subsequently, based on the spectrum thus obtained, the amount of a radical generated was quantified. Measurement by ESR was performed 60 seconds after the addition of xanthine oxidase.
Based on the quantification results of the amount of a radical generated in the present Examples (1) and (2), the radical generation-inhibitory rate by SOD was calculated by the following formula 5.
Radical generation-inhibitory rate by SOD=(S0−S)/[…] (Formula 5)

[2] = Inhibition of radical generation by SOD, superoxide generated by light irradiation of riboflavin (ESR); assay type: biochemical
Method: To the aqueous solution thus prepared, superoxide dismutase (SOD) (Sigma), which is an enzyme that specifically scavenges superoxide, was added at 10 U/mL to separately prepare an aqueous solution with added SOD.
The aqueous solutions prepared in the present Example (1) (aqueous solutions with or without SOD) were each introduced into the sample tube of the electron spin resonance device JES-RE1X (JEOL Ltd.). Using a xenon lamp, the sample tube was irradiated with visible light of 1500 lux for 30 seconds. Subsequently, a measurement was made by ESR under the following measurement conditions to obtain a spectrum. The spectrum of the SOD-free aqueous solution was obtained as Spectrum A, and the spectrum of the aqueous solution with added SOD was obtained as Spectrum B. The results thus obtained are shown in FIG. 10. […]
Following a similar operation to Example 1 (2), each of the aqueous solutions thus prepared was measured by ESR to obtain a spectrum. Based on the spectrum thus obtained, the amount of a radical generated was quantified.
Based on the quantification results of the amount of a radical generated in the present Examples (1) and (2), the radical generation-inhibitory rate by SOD was calculated by the following formula 5. […]

superoxide dismutase [SOD]
Radical generation-inhibitory rate by SOD [1]: approximately the same values | Radical generation-inhibitory rate by SOD ([2]; SOD 0.5, 1, 1.5 U/mL, light irradiation of riboflavin, compared with xanthine oxidase system): approximately the same values | Superoxide scavenging (radicals generated with added SOD) ([2]; SOD 10 U/mL, riboflavin 1 μmol/L, EDTA 5 mmol/L, CYPMPO 10 mmol/L): generated a small amount of EDTA radicals but not superoxide
